29 compounds from US7183288B2, “Amide derivatives as glycogen synthase kinase 3-β inhibitors” (priority 2001, dated 2007) can be followed below.

Sequence of GSK3β (P49841 whole entry, species assumed): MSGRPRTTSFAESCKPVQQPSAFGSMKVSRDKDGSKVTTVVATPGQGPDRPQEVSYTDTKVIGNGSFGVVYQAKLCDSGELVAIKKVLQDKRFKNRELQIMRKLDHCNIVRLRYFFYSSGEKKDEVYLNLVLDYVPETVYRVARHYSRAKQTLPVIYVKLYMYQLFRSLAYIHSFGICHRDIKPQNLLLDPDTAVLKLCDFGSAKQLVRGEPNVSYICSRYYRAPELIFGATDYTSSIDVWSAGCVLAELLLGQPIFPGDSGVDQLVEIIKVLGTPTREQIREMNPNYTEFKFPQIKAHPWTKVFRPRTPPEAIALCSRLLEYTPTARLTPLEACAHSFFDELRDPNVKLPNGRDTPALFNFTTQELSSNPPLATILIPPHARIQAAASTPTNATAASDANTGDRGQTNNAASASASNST

System in the first data set: not given
Assay: not given
Settings: not given
As a reminder, the melting point is the temperature, or range, at which the solid turns liquid. Compound `N#Cc1ccc(Nc2ncccc2C(N)=O)cc1OCc1ccccc1` [Compound 1, 2-(3-benzyloxy-4-cyano-phenylamino)-nicotinamide] returned a melting point of 232 °C.

Another data set addresses GSK3β (Homo sapiens, UniProt P49841). As to the kind of experiment: GSK3beta assay (SPA, biotinylated phosphorylated CREB peptide, ATP-P33). It counts as biochemical. Conditions: -log IC50 (M); 19 nM GSK3β, 5 μM biotinylated phosphorylated CREB peptide, 1 μM ATP, 25° C., one hour. As for the experimental part: GSK3beta assays were performed at 25° C. in a 100 μl reaction volume of 25 mM Tris (pH 7.4) containing 10 mM MgCl2, 1 mM DTT, 0.1 mg/ml BSA, 5% glycerol and containing 19 nM GSK3β, 5 μM biotinylated phosphorylated CREB peptide, 1 μM ATP, 2 nM ATP-P^33 and a suitable amount of a test compound of formula (I) or (I′). After one hour, the reaction was terminated by adding 70 μl of Stop mix (1 mM ATP, 18 mg/ml streptavidin coated PVT SPA bead pH 11.0). The beads to which the phosphorylated CREB peptide is attached were allowed to settle for 30 minutes and the radioactivity of the beads was counted in a microtiterplate scintillation counter and compared with the results obtained in a control experiment (without the presence of a test compound) in order to determine the percentage of GSK3β inhibition. The IC50 value, i.e. the concentration (M) of the test compound at which 50% of GSK3β is inhibited, was calculated from the dose response curve obtained by performing the above-described GSK3β assay in the presence of different amounts of the test compound.
Broadly, the IC50 is the concentration that gives 50% inhibition. As for `N#Cc1ccc(Nc2nccc(C(N)=O)n2)cc1OCc1cc(C(F)(F)F)cc(C(F)(F)F)c1` [Compound 9], half-maximal inhibition (IC50) required 3.8e-07 M. The same measure, in the same setting: then `N#Cc1ccc(Nc2nccc(C(N)=O)n2)cc1OCc1ccccc1` [Compound 2, 2-[[4-cyano-3-(phenylmethoxy)phenyl]amino]-4-pyrimidinecarboxamide], with 5.01e-08 M; and `N#Cc1ccc(Nc2nccc(C(N)=O)n2)cc1OCCC1COc2ccccc2O1` (centres unmarked) [Compound 14], with 1.38e-07 M; and `CC(COc1cc(Nc2nccc(C(N)=O)n2)ccc1C#N)Oc1ccc(F)cc1` (centres unmarked) [Compound 16, 2-[[4-cyano-3-[2-(4-fluorophenoxy)propoxy]phenyl]amino]-4-pyrimidinecarboxamide], with 3.89e-08 M. Turning to `N#Cc1ccc(Nc2nccc(C(N)=O)n2)cc1` [Compound 29], the IC50 was 1.48e-07 M. Still for that read-out and setting: the value for `NC(=O)c1ccnc(Nc2cccc(OCc3ccccc3)c2)n1` [Compound 25] was 9.12e-08 M; that for `N#Cc1ccc(Nc2nccc(C(N)=O)n2)cc1O/C=C/c1ccccc1` [Compound 15] was 1.32e-07 M; that for `N#Cc1ccc(COc2cc(Nc3nccc(C(N)=O)n3)ccc2C#N)cc1` [Compound 31] was 9.55e-08 M. In turn, `N#Cc1ccc(Nc2nccc(C(N)=O)n2)cc1OCc1cccc2ccccc12` [Compound 23] had an IC50 of 8.13e-08 M. Same read-out and setting: the value for `N#Cc1ccc(Nc2nccc(C(N)=O)n2)cc1OCc1nc2ccccc2s1` [Compound 19] was 4.57e-07 M; that for `N#Cc1ccc(Nc2nccc(C(N)=O)n2)cc1OCc1ccc2ccccc2c1` [Compound 38, 2-[[4-cyano-3-(2-naphthalenylmethoxy)phenyl]amino]-4-pyrimidinecarboxamide] was 5.5e-08 M; that for `CCc1noc(COc2cc(Nc3nccc(C(N)=O)n3)ccc2C#N)n1` [Compound 26] was 4.37e-07 M. The compound `COc1ccccc1COc1cc(Nc2nccc(C(N)=O)n2)ccc1C#N` [Compound 30, 2-[[4-cyano-3-[(2-methoxyphenyl)methoxy]phenyl]amino]-4-pyrimidinecarboxamide] gave an IC50 of 4.68e-08 M.

In the case of `Cc1cccc(COc2cc(Nc3nccc(C(N)=O)n3)ccc2C#N)c1` [Compound 32], half-maximal inhibition (IC50) was put at 6.46e-08 M. Same read-out and setting: then `N#Cc1ccc(Nc2nccc(C(N)=O)n2)cc1OCCCc1ccccc1` [Compound 18], with 5.75e-08 M. Turning to `CN(C)S(=O)(=O)Nc1cccc(COc2cc(Nc3nccc(C(N)=O)n3)ccc2C#N)c1` [Compound 8], the IC50 is 2.09e-08 M. On the same count and under the same terms, then `N#Cc1ccc(Nc2nccc(C(N)=O)n2)cc1OCc1ccc2ccccc2n1` [Compound 21], with 2.51e-08 M; and `CN(C)CCOc1cc(Nc2nccc(C(N)=O)n2)ccc1C#N` [Compound 12], with 8.91e-07 M. Still for that read-out and setting: the value for `CNC(=O)c1ccnc(Nc2ccc(C#N)c(OCc3ccccc3)c2)n1` [Compound 3] was 5.5e-08 M; that for `COc1ccc(COc2cc(Nc3nccc(C(N)=O)n3)ccc2C#N)cc1` [Compound 13, 2-[[4-cyano-3-[(4-methoxyphenyl)methoxy]phenyl]amino]-4-pyrimidinecarboxamide] was 5.25e-08 M; that for `N#Cc1ccc(Nc2nccc(C(N)=O)n2)cc1OCCOc1ccc(F)cc1F` [Compound 17] was 2.45e-07 M.

As for `N#Cc1ccc(Nc2nccc(C(N)=O)n2)cc1OCCN1CCOCC1` [Compound 11], the IC50 was 2.63e-07 M. For the compound `CCn1ccnc1COc1cc(Nc2nccc(C(N)=O)n2)ccc1C#N` [Compound 24], the IC50 is 4.79e-08 M.

For `N#Cc1ccc(Nc2nccc(C(N)=O)n2)cc1OCC1CC(c2cccnc2)=NO1` (centres unmarked) [Compound 22], half-maximal inhibition (IC50) was put at 2.34e-07 M.

On to `Cc1cc(C)cc(COc2cc(Nc3nccc(C(N)=O)n3)ccc2C#N)c1` [Compound 10], for which the IC50 is 1.1e-07 M.

Turning to `Cc1ccc(COc2cc(Nc3nccc(C(N)=O)n3)ccc2C#N)cc1` [Compound 35], the IC50 is 1.55e-07 M. Same read-out and setting: the value for `Cc1ccccc1COc1cc(Nc2nccc(C(N)=O)n2)ccc1C#N` [Compound 34] was 1.78e-07 M; that for `N#Cc1ccc(Nc2nccc(C(N)=O)n2)cc1OCc1cccc(C(F)(F)F)c1` [Compound 36] was 4.07e-07 M.
